pIC50: −log10 of the molar value. Blank lines part the entries; values can stand above or below the compound they belong to.
How the values were obtained:
human endothelial cells = experiment: Cladribine Example, PDGF-stimulated proliferation of endothelial cells; type: cell-based; conditions: EC, Cladribine 10.000 nM
Procedure: (§1) To assess the ability of cladribine to prevent cell proliferation, human smooth muscle or endothelial cells (Clonetics, Walkersville, Md.) were seeded at a density of 2000 cells/cm^2 (approximately 3600 cells/well) into each well of 12-well plates and cultured with 1.5 ml of growth medium containing five percent fetal calf serum (FCS). After twenty-four hours, the growth medium was changed and fresh medium containing 10 ng/ml platelet-derived growth factor AB (PDGF AB; LIFE Technologies), as well as various concentrations of cladribine (0.001-10,000 nM) were added with triplicate wells. Medium was replaced with fresh cladribine-containing medium after three days. On day six, cells were detached by trypsinization to yield a cell suspension, lightly centrifuged to pellet and then counted manually using a Neubauer hemocytometer system. Cell viability was assessed by trypan blue exclusion.

[1] = In vivo release kinetics of cladribine from PVDF/HFP coating on Bx Velocity stents (FIG. 61); conditions: PVDF/HFP 85/15 basecoat 1800 μg (30 % cladribine), 300 μg topcoat, Yorkshire pig
Excerpt: FIG. 61 is a graphical representation of the in vivo release kinetics of cladribine from a polymeric coating on Bx Velocity® stents, available from Cordis Corporation, implanted in a Yorkshire pig. The basecoat comprises an 85/15 ratio of PVDF and HFP and cladribine for a total combined weight of one thousand eight hundred micrograms (cladribine comprising thirty percent of the total weight). The topcoat comprises an 85/15 ratio of PVDF/HFP and no cladribine. The total weight of the topcoat is three hundred micrograms.

[2] = tested on: human coronary artery smooth muscle cells; experiment: Anti-proliferative activity in non-synchronized cultured cells stimulated with two percent fetal bovine serum; type: cell-based; conditions: for effect of addition on the anti-proliferative rapamycin dose response curve: non-synchronized cells treated with rapamycin, two percent fetal bovine serum
Excerpt: The multiple curves represent various concentrations of mycophenolic acid ranging from zero to one thousand nanomolar concentrations.
The multiple curves represent various concentrations of cladribine ranging from zero to nine hundred nanomolar concentrations.

[3] = In vivo release kinetics from rapamycin/cladribine EVA/BMA basecoat, porcine pharmacokinetics studies (FIG. 62, 63); conditions: EVA/BMA basecoat with 200 μg BMA topcoat, Yorkshire pigs
Excerpt: (§2) The basecoat is applied to Bx Velocity® stents and implanted into Yorkshire pigs.
as §2

[4] = tested on: human smooth muscle cells; experiment: Cladribine Example, PDGF-stimulated proliferation of smooth muscle cells; type: cell-based
Procedure: as §1

[5] = tested on: human coronary artery smooth muscle cells; experiment: Anti-proliferative activity in synchronized cultured cells stimulated with two percent fetal bovine serum; conditions: synchronized cells treated with rapamycin
cell viability = experiment: Cell viability assay; type: cell-based
[6] = In vivo release kinetics from rapamycin/mycophenolic acid EVA/BMA basecoat, porcine pharmacokinetics studies (FIG. 53, 54); conditions: EVA/BMA basecoat 600 μg with 180 μg each drug, no or 100/200 μg BMA topcoat
[7] = tested on: human coronary artery smooth muscle cell proliferation; experiment: In vitro cell culture study, coronary artery smooth muscle cell proliferation (FIG. 51); type: cell-based
Excerpt: FIG. 51 is a graph of the inhibition of coronary artery smooth muscle cells by trichostatin A in a cell culture study.

- in vivo elution from stent coating compared with rapamycin [3]: elutes more rapidly than rapamycin
SMILES: Nc1nc(Cl)nc2c1ncn2[C@H]1C[C@H](O)[C@@H](CO)O1 [Cladribine, 2-chlorodeoxyadenosine]
- % of PDGF-stimulated increase in cell count (human endothelial cells): 10%
- in vivo elution from stent coating over time [1]: after the first day, the elution of cladribine levels off significantly
- effect of addition on the anti-proliferative rapamycin dose response curve [2]: potentiate the anti-proliferative activity of rapamycin
- inhibition of human coronary artery smooth muscle cell proliferation ([2]; non-synchronized cells, two percent fetal bovine serum (FIG. 58)): completely inhibits
- % of PDGF-stimulated increase in cell count ([4]; SMC, Cladribine 10.000 nM): −4%
- potency on smooth muscle cells relative to endothelial cells ([4]; from IC50 values 23 and 40 nanomolar): approximately twice as potent

SMILES: COc1cc([C@@H]2c3cc4c(cc3[C@@H](O[C@@H]3O[C@@H]5CO[C@@H](C)O[C@H]5[C@H](O)[C@H]3O)[C@H]3COC(=O)[C@H]23)OCO4)cc(OC)c1O [etoposide]
- effect of addition on the anti-proliferative rapamycin dose response curve [5]: increases the percent inhibition of rapamycin alone
- cytotoxicity in cell viability assay (cell viability; concentrations up to ten micromolar): non-cytotoxic
- effect of addition on the anti-proliferative rapamycin dose response curve [2]: potentiate the anti-proliferative activity of rapamycin

SMILES: COc1c(C)c2c(c(O)c1C/C=C(\C)CCC(=O)O)C(=O)OC2 [mycophenolic acid]
- in vivo release from stent coating compared with rapamycin [6]: elutes more completely over a shorter duration than the rapamycin
- effect of addition on the anti-proliferative rapamycin dose response curve [2]: potentiates the anti-proliferative activity of rapamycin

SMILES: CC[C@@]1(O)C(=O)OCc2c1cc1n(c2=O)Cc2cc3c(CN(C)C)c(O)ccc3nc2-1 [topotecan]
- effect of addition on the anti-proliferative rapamycin dose response curve [5]: potentiate the anti-proliferative activity of rapamycin
- cytotoxicity in cell viability assay (cell viability; concentrations up to one micromolar): non-cytotoxic

SMILES: CC(/C=C/C(=O)NO)=C\[C@@H](C)C(=O)c1ccc(N(C)C)cc1 [trichostatin A]
- inhibition of human coronary artery smooth muscle cell proliferation [7]: completely inhibit
- pIC50 ([7]; read-out: anti-proliferative IC50): ~8.22
